Values quoted from earlier work, collected in patent US8133524B1, “Food composition for hemophagous insects” (Tokitae LLC, priority 2010, dated 2012).
Entries after “also recorded” stand apart in the source; their conditions may differ.

Tested on: Aedes aegypti mosquitoes
Conditions: mosquitoes fed with human red blood cells or blood

CC[C@H](C)[C@H](N)C(=O)O [isoleucine]
effect of isoleucine supplementation on egg production / egg-laying: enhanced egg production rate; also recorded: enhanced egg-laying after blood feeding
